Results as given in patent US20250353891A1 (MEDIMMUNE LIMITED, priority 2022, published 2025).
Starred links: 1 amine or outer side, 2 acyl side, 3 side chain; linkers in the order of their positions; H or OH if unused. Non-standard residues stand in square brackets, D forms with d. Residues, ends and D or L forms follow the SMILES beside them. Groups on a side chain read outwards from the residue. *: point of attachment. C20 diacid = O=C(O)CCCCCCCCCCCCCCCCCCC(=O)*; C18 diacid = O=C(O)CCCCCCCCCCCCCCCCC(=O)*; γGlu = O=C(O)[C@H](CCC(=O)[*:2])N[*:1]; αMeF = C[C@](N)(Cc1ccccc1)C(=O)O; AEEA = NCCOCCOCC(=O)O; Aib = CC(C)(N)C(=O)O

How the values were obtained:
[1] = biological target: human GLP-1 receptor (hGLP-1R) (Homo sapiens, UniProt P43220); test: cAMP production (HTRF) in CHO cells expressing hGLP-1R; assay type: cell-based; parameters: expressed in transfected cells; conditions: for EC50: Table 6, peptides modified at position 17, cAMP in CHO hGLP-1R cells, geometric mean, read-out: hGLP-1R EC50; for % Relative Potency Ratio: Table 6, % GLP-1R activity relative to GLP-1 / % GlucR activity relative to glucagon
human GLP-1 receptor (hGLP-1R), sequence (P43220 24-463): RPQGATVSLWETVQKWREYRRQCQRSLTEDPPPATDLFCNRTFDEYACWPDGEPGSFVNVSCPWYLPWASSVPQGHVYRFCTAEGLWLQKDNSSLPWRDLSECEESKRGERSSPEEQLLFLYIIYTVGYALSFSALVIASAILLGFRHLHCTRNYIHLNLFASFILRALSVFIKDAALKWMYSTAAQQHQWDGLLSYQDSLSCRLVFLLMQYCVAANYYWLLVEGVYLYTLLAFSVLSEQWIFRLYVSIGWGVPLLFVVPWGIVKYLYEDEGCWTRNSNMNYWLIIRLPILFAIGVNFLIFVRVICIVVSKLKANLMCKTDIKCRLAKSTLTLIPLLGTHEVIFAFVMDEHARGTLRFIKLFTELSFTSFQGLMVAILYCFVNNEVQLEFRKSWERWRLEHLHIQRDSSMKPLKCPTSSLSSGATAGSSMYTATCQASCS
Procedure, shortened: (§1)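 Cells were resuspended in assay buffer at batch-optimized density, typically 1×10^5 cells/mL for hGLP-1R and 2×10^5 cells/mL for hGCGR. After 30 min incubation at room temperature with compound, cAMP was measured by two-step HTRF. EC50 values came from 4-parameter logistic fits of % Delta F.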

[2] = biological target: human glucagon receptor (hGCGR) (Homo sapiens, UniProt P47871); test: cAMP production (HTRF) in CHO cells expressing hGCGR; assay type: cell-based; parameters: expressed in transfected cells; conditions: Table 6, peptides modified at position 17; cAMP in CHO hGCGR cells; geometric mean; read-out: hGluc-R EC50
human glucagon receptor (hGCGR), sequence (P47871 26-477): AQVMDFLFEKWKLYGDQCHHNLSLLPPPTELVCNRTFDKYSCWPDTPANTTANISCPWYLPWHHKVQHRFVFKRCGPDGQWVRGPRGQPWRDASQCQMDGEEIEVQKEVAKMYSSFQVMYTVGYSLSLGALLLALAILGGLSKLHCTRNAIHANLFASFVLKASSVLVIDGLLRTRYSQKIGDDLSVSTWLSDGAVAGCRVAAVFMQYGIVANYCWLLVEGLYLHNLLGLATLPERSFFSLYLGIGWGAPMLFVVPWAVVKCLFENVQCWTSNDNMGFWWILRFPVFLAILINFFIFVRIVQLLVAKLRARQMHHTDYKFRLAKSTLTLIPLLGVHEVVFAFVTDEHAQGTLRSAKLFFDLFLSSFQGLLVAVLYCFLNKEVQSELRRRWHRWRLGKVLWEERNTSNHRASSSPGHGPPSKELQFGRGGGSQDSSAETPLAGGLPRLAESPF
Procedure, shortened: as §1

| Structure (SMILES) | EC50 [1] [nM] | % Relative Potency Ratio [1] | EC50 [2] [nM] |
| --- | --- | --- | --- |
| CC(C)C[C@H](NC(=O)[C@H](Cc1c[nH]c2ccccc12)NC(=O)[C@H](CCCNC(=N)N)NC(=O)[C@@H](NC(=O)[C@H](Cc1ccccc1)NC(=O)[C@H](CC(=O)O)NC(=O)[C@H](CCC(N)=O)NC(=O)[C@H](C)NC(=O)[C@H](CCCNC(=N)N)NC(=O)[C@H](CCCCNC(=O)COCCOCCNC(=O)COCCOCCNC(=O)CC[C@H](NC(=O)CCCCCCCCCCCCCCCCCCC(=O)O)C(=O)O)NC(=O)[C@@H](NC(=O)[C@H](CC(=O)O)NC(=O)[C@H](CC(C)C)NC(=O)[C@](C)(Cc1ccccc1)NC(=O)[C@H](CCCCN)NC(=O)[C@H](CO)NC(=O)[C@@H](NC(=O)[C@H](CC(=O)O)NC(=O)[C@H](CO)NC(=O)[C@@H](NC(=O)[C@H](Cc1ccccc1)NC(=O)[C@@H](NC(=O)CNC(=O)[C@H](CCC(N)=O)NC(=O)C(C)(C)NC(=O)[C@@H](N)Cc1c[nH]cn1)[C@@H](C)O)[C@@H](C)O)C(C)C)[C@@H](C)O)C(C)C)C(=O)N[C@@H](CC(C)C)C(=O)N[C@@H](CCCNC(=N)N)C(=O)NC(C)(C)C(=O)N[C@@H](CCCCN)C(=O)O [Peptide 494] | 0.0987 | 4.3 | 0.212 |
| CC(C)C[C@H](NC(=O)[C@H](Cc1c[nH]c2ccccc12)NC(=O)[C@H](CCCNC(=N)N)NC(=O)[C@@H](NC(=O)[C@H](Cc1ccccc1)NC(=O)[C@H](CC(=O)O)NC(=O)[C@H](CCC(N)=O)NC(=O)[C@H](C)NC(=O)[C@H](CCCNC(=N)N)NC(=O)[C@H](CCCCNC(=O)COCCOCCNC(=O)COCCOCCNC(=O)CC[C@H](NC(=O)CCCCCCCCCCCCCCCCC(=O)O)C(=O)O)NC(=O)[C@@H](NC(=O)[C@H](CC(=O)O)NC(=O)[C@H](CC(C)C)NC(=O)[C@](C)(Cc1ccccc1)NC(=O)[C@H](CCCCN)NC(=O)[C@H](CO)NC(=O)[C@@H](NC(=O)[C@H](CC(=O)O)NC(=O)[C@H](CO)NC(=O)[C@@H](NC(=O)[C@H](Cc1ccccc1)NC(=O)[C@@H](NC(=O)CNC(=O)[C@H](CCC(N)=O)NC(=O)C(C)(C)NC(=O)[C@@H](N)Cc1c[nH]cn1)[C@@H](C)O)[C@@H](C)O)C(C)C)[C@@H](C)O)C(C)C)C(=O)N[C@@H](CC(C)C)C(=O)N[C@@H](CCCNC(=N)N)C(=O)NC(C)(C)C(=O)N[C@@H](CCCCN)C(N)=O [Peptide 495] (H-H[Aib]QGTFTSDVSK[αMeF]LDTK([AEEA-AEEA-γGlu-C18 diacid])RAQDFVRWLLR[Aib]K-NH2; N-terminus assumed) | 0.0232 | 32.4 | 0.38 |
| CC(C)C[C@H](NC(=O)[C@H](Cc1c[nH]c2ccccc12)NC(=O)[C@H](CCCNC(=N)N)NC(=O)[C@@H](NC(=O)[C@H](Cc1ccccc1)NC(=O)[C@H](CC(=O)O)NC(=O)[C@H](CCC(N)=O)NC(=O)[C@H](C)NC(=O)[C@H](CCCNC(=N)N)NC(=O)[C@H](CCCCNC(=O)COCCOCCNC(=O)COCCOCCNC(=O)CC[C@H](NC(=O)CCCCCCCCCCCCCCCCCCC(=O)O)C(=O)O)NC(=O)[C@@H](NC(=O)[C@H](CC(=O)O)NC(=O)[C@H](CC(C)C)NC(=O)[C@](C)(Cc1ccccc1)NC(=O)[C@H](CCCCN)NC(=O)[C@H](CO)NC(=O)[C@@H](NC(=O)[C@H](CC(=O)O)NC(=O)[C@H](CO)NC(=O)[C@@H](NC(=O)[C@H](Cc1ccccc1)NC(=O)[C@@H](NC(=O)CNC(=O)[C@H](CCC(N)=O)NC(=O)C(C)(C)NC(=O)[C@@H](N)Cc1c[nH]cn1)[C@@H](C)O)[C@@H](C)O)C(C)C)[C@@H](C)O)C(C)C)C(=O)N[C@@H](CC(C)C)C(=O)N[C@@H](CCCNC(=N)N)C(=O)NC(C)(C)C(=O)N[C@@H](CCCCN)C(N)=O [Peptide 496] (H-H[Aib]QGTFTSDVSK[αMeF]LDTK([AEEA-AEEA-γGlu-C20 diacid])RAQDFVRWLLR[Aib]K-NH2; N-terminus assumed) | 0.0649 | 14.7 | 0.482 |
| CC(C)C[C@H](NC(=O)[C@H](Cc1c[nH]c2ccccc12)NC(=O)[C@H](CCCNC(=N)N)NC(=O)[C@@H](NC(=O)[C@H](Cc1ccccc1)NC(=O)[C@H](CC(=O)O)NC(=O)[C@H](CCC(N)=O)NC(=O)[C@H](C)NC(=O)[C@H](CCCNC(=N)N)NC(=O)[C@H](CCCCNC(=O)COCCOCCNC(=O)COCCOCCNC(=O)CC[C@H](NC(=O)CCCCCCCCCCCCCCCCC(=O)O)C(=O)O)NC(=O)[C@@H](NC(=O)[C@H](CC(=O)O)NC(=O)[C@H](CC(C)C)NC(=O)[C@](C)(Cc1ccccc1)NC(=O)[C@H](CCCCN)NC(=O)[C@H](CO)NC(=O)[C@@H](NC(=O)[C@H](CC(=O)O)NC(=O)[C@H](CO)NC(=O)[C@@H](NC(=O)[C@H](Cc1ccccc1)NC(=O)[C@@H](NC(=O)CNC(=O)[C@H](CCC(N)=O)NC(=O)C(C)(C)NC(=O)[C@@H](N)Cc1c[nH]cn1)[C@@H](C)O)[C@@H](C)O)C(C)C)[C@@H](C)O)C(C)C)C(=O)N[C@@H](CC(C)C)C(=O)N[C@@H](CCCNC(=N)N)C(=O)NC(C)(C)C(=O)N[C@@H](C)C(=O)O [Peptide 497] (H-H[Aib]QGTFTSDVSK[αMeF]LDTK([AEEA-AEEA-γGlu-C18 diacid])RAQDFVRWLLR[Aib]A-OH) | 0.0374 | 6.3 | 0.118 |
| CC(C)C[C@H](NC(=O)[C@H](Cc1c[nH]c2ccccc12)NC(=O)[C@H](CCCNC(=N)N)NC(=O)[C@@H](NC(=O)[C@H](Cc1ccccc1)NC(=O)[C@H](CC(=O)O)NC(=O)[C@H](CCC(N)=O)NC(=O)[C@H](C)NC(=O)[C@H](CCCNC(=N)N)NC(=O)[C@H](CCCCNC(=O)COCCOCCNC(=O)COCCOCCNC(=O)CC[C@H](NC(=O)CCCCCCCCCCCCCCCCCCC(=O)O)C(=O)O)NC(=O)[C@@H](NC(=O)[C@H](CC(=O)O)NC(=O)[C@H](CC(C)C)NC(=O)[C@](C)(Cc1ccccc1)NC(=O)[C@H](CCCCN)NC(=O)[C@H](CO)NC(=O)[C@@H](NC(=O)[C@H](CC(=O)O)NC(=O)[C@H](CO)NC(=O)[C@@H](NC(=O)[C@H](Cc1ccccc1)NC(=O)[C@@H](NC(=O)CNC(=O)[C@H](CCC(N)=O)NC(=O)C(C)(C)NC(=O)[C@@H](N)Cc1c[nH]cn1)[C@@H](C)O)[C@@H](C)O)C(C)C)[C@@H](C)O)C(C)C)C(=O)N[C@@H](CC(C)C)C(=O)N[C@@H](CCCNC(=N)N)C(=O)NC(C)(C)C(=O)N[C@@H](C)C(=O)O [Peptide 498] (H-H[Aib]QGTFTSDVSK[αMeF]LDTK([AEEA-AEEA-γGlu-C20 diacid])RAQDFVRWLLR[Aib]A-OH; N-terminus assumed) | 0.156 | 2.1 | 0.17 |

Results, then the compound that gave them:

| EC50 [1] [nM] | % Relative Potency Ratio [1] | EC50 [2] [nM] | Structure (SMILES) |
| --- | --- | --- | --- |
| 0.0406 | 3.8 | 0.0788 | CC(C)C[C@H](NC(=O)[C@H](Cc1c[nH]c2ccccc12)NC(=O)[C@H](CCC(N)=O)NC(=O)[C@@H](NC(=O)[C@H](Cc1ccccc1)NC(=O)[C@H](CC(=O)O)NC(=O)[C@H](CCC(N)=O)NC(=O)[C@H](C)NC(=O)[C@H](CCCNC(=N)N)NC(=O)[C@H](CCCCNC(=O)COCCOCCNC(=O)COCCOCCNC(=O)CC[C@H](NC(=O)CCCCCCCCCCCCCCCCC(=O)O)C(=O)O)NC(=O)[C@@H](NC(=O)[C@H](CC(=O)O)NC(=O)[C@H](CC(C)C)NC(=O)[C@](C)(Cc1ccccc1)NC(=O)[C@H](CCCCN)NC(=O)[C@H](CO)NC(=O)[C@@H](NC(=O)[C@H](CC(=O)O)NC(=O)[C@H](CO)NC(=O)[C@@H](NC(=O)[C@H](Cc1ccccc1)NC(=O)[C@@H](NC(=O)CNC(=O)[C@H](CCC(N)=O)NC(=O)C(C)(C)NC(=O)[C@@H](N)Cc1c[nH]cn1)[C@@H](C)O)[C@@H](C)O)C(C)C)[C@@H](C)O)C(C)C)C(=O)N[C@@H](CC(C)C)C(=O)N[C@@H](CCCNC(=N)N)C(=O)NC(C)(C)C(=O)N[C@@H](C)C(=O)O [Peptide 499] (H-H[Aib]QGTFTSDVSK[αMeF]LDTK([AEEA-AEEA-γGlu-C18 diacid])RAQDFVQWLLR[Aib]A-OH; N-terminus assumed) |
| 0.102 | 2.0 | 0.101 | CC(C)C[C@H](NC(=O)[C@H](Cc1c[nH]c2ccccc12)NC(=O)[C@H](CCC(N)=O)NC(=O)[C@@H](NC(=O)[C@H](Cc1ccccc1)NC(=O)[C@H](CC(=O)O)NC(=O)[C@H](CCC(N)=O)NC(=O)[C@H](C)NC(=O)[C@H](CCCNC(=N)N)NC(=O)[C@H](CCCCNC(=O)COCCOCCNC(=O)COCCOCCNC(=O)CC[C@H](NC(=O)CCCCCCCCCCCCCCCCCCC(=O)O)C(=O)O)NC(=O)[C@@H](NC(=O)[C@H](CC(=O)O)NC(=O)[C@H](CC(C)C)NC(=O)[C@](C)(Cc1ccccc1)NC(=O)[C@H](CCCCN)NC(=O)[C@H](CO)NC(=O)[C@@H](NC(=O)[C@H](CC(=O)O)NC(=O)[C@H](CO)NC(=O)[C@@H](NC(=O)[C@H](Cc1ccccc1)NC(=O)[C@@H](NC(=O)CNC(=O)[C@H](CCC(N)=O)NC(=O)C(C)(C)NC(=O)[C@@H](N)Cc1c[nH]cn1)[C@@H](C)O)[C@@H](C)O)C(C)C)[C@@H](C)O)C(C)C)C(=O)N[C@@H](CC(C)C)C(=O)N[C@@H](CCCNC(=N)N)C(=O)NC(C)(C)C(=O)N[C@@H](C)C(=O)O [Peptide 500] (H-H[Aib]QGTFTSDVSK[αMeF]LDTK([AEEA-AEEA-γGlu-C20 diacid])RAQDFVQWLLR[Aib]A-OH; N-terminus assumed) |
